From US8318792B2, “Therapeutic agent for amyotrophic lateral sclerosis” (Nippon Medical School Foundation, priority 2006, dated 2012)

Experiments:
G1H-G93A transgenic mice [1] = assay: Clinical symptomatological evaluation (day of onset, survival period, disease period, stage periods); type: in vivo, mouse; details: for day of onset / disease period / survival period / time period of clinical symptomatological stage 1 / time period of clinical symptomatological stage 2 / time period of clinical symptomatological stage 3 / time period of clinical symptomatological stage 4 / time period of clinical symptomatological stage 5: average±SD
Description: 1) The procedure of concentration adjustment, and the amount and the procedure of administration of the compound (a) were as described below. As a base, 0.5% methylcellulose is prepared. 5 mg of the compound (a) is pulverized in an agate mortar, and then a small amount of 0.5% methylcellulose is added to form a complete suspension. Subsequently, a small amount of 0.5% methylcellulose is added gradually, so that finally 5 mg of the compound (a) is suspended in 10 mL of 0.5% methylcellulose. A sample of 5 mg of compound (a)/10 mL of 0.5% methylcellulose (5 mg/10 mL) was prepared by the above-described procedure, and thus the compound (a) was orally administered once a day in a dose of 5 mg per kg of the mouse body weight (5 mg/kg).
As the experimental animal, male transgenic mice over-expressing a high copy number (25 copies) of mutated human SOD1 gene with a G93A point mutation, i.e., B6SJL-TgN [SOD1-G93A]1Gur (G1H-G93A transgenic mice, JR2726; Hemizygote) (Gurney M E, et al., Science, 264, 1772-1775, 1994), were purchased from Jackson Laboratory (Bar Harbor, USA) and used. At the same time, wild-type male mice from the same litter, B6SJL-TgN[SOD1-G93A]1Gur (Wild-type), were also purchased from Jackson Laboratory and used.
The mice were subjected to a clinical symptomatological evaluation everyday. The clinical symptomatological evaluation was performed from one week after the arrival from Jackson Laboratory. […] The day of onset, the survival period and the disease period were indicated by the number of days. In regard to the indication of the number of days of the disease period, one day (one disease day) corresponds to within 24 hours from the onset (the “onset” is determined by the observation of the clinical symptomatological evaluation stage 1), and two days (two disease days) corresponds to more than 24 hours after and within 48 hours from the onset. Subsequent disease days after the onset were determined in the same manner.
The mice were divided into seven experimental groups, to which a placebo, the compound (a), compound (b), compound (c) or allopurinol was administered. That is, the seven groups consist of: an experimental group administered with placebo; a treatment experimental group administered with compound (a) before onset; a treatment experimental group administered with compound (a) after onset; a treatment experimental group administered with compound (b) before onset; a treatment experimental group administered with compound (c) before onset; a treatment experimental group administered with compound (c) after onset; and a treatment group administered with allopurinol before onset. Details of the respective groups will be described in the following.
Ten G1H-G93A transgenic mice were used. From the 80th day after birth, 5 mg/kg of the compound (a) was orally administered everyday. […]
Ten G1H-G93A transgenic mice were used. From the 80th day after birth, 5 mg/kg of the compound (b) was orally administered everyday.
Ten G1H-G93A transgenic mice were used. From the 80th day after birth, 5 mg/kg of the compound (c) was orally administered everyday. […]
Ten G1H-G93A transgenic mice were used. From the 80th day after birth, 5 mg/kg of allopurinol was orally administered everyday.
In regard to the results of the clinical symptomatological evaluation, the day of onset, the survival period (days taken to show quadriplegia and to reach the moribund state), the disease period (days taken to show quadriplegia and to reach the moribund state, from the day of onset), and the time periods for the respective stages of the clinical symptomatological evaluation, were indicated by the average±standard deviation. In regard to the results of the exercise tolerance test, the score values of the respective exercise tolerance tests, including the extension reflex test, inclined plane test, footprint test, rotarod test and beam balance test, were indicated by the average±standard deviation. […]

G1H-G93A transgenic mice [2] = assay: Exercise tolerance test: extension reflex test; type: in vivo, mouse; details: for Extension reflex test score: 5 mg/kg oral daily from 80th day (before onset), score 0-2
Description: The following five kinds of exercise tolerance tests were conducted every fifth day from the 70th day after birth to evaluate the ability to exercise in the respective exercise tolerance tests. That is, the days for the exercise tolerance tests were every fifth days, such as the 70th day, 75th day, 80th day, 85th day and so on, after birth. The exercise tolerance tests were conducted throughout the survival period, and the post-mortem evaluation was based on the definitions of the following five kinds of exercise tolerance tests.
As for extension reflex, extension of the hindlimbs is normally observed when a mouse is suspended in the air by its tail.
The evaluation of extension reflex test of the mice was performed based on the following criteria: Score 0=Extension reflex is recognized in both of the hindlimbs; Score 1=Extension reflex is recognized only one hindlimb; and Score 2=Extension reflex is not recognized in both of the hindlimbs. The post-mortem evaluation of the extension reflex test is defined as score 2.

[3] = 5 mg/kg oral daily from 80th day after birth (before onset), Mann-Whitney's U test, log-rank test
[4] = 5 mg/kg oral daily from the day of onset (after onset), Mann-Whitney's U test, log-rank test
[5] = 5 mg/kg oral once a day from 80th day after birth (before onset)
[6] = 5 mg/kg oral once a day from the onset (after onset)

For `Cc1nc(-c2ccc(OCC(C)C)c(C#N)c2)sc1C(=O)O` [compound (c), 2-[3-cyano-4-(2-methylpropoxy)phenyl]-4-methyl-5-thiazolecarboxylic acid], the “time periods for the respective stages in comparison to placebo group” value (G1H-G93A transgenic mice [1]; 5 mg/kg oral daily from 80th day after birth (before onset), Mann-Whitney's U test) was “extended period of the respective stages with significant difference”, the “disease period extending effect in comparison to placebo group” value (G1H-G93A transgenic mice [1]; [3]) was “significant extension of the disease period” and the “onset delaying effect in comparison to placebo group” value (G1H-G93A transgenic mice [1]; [3]) was “significant delaying of the day of onset”. The “survival period extending effect in comparison to placebo group” value (G1H-G93A transgenic mice [1]; [3]) was “significant extension of the survival period”, the “time periods for the respective stages in comparison to placebo group” value (G1H-G93A transgenic mice [1]; 5 mg/kg oral daily from the day of onset (after onset), Mann-Whitney's U test) was “extended period of stage 3 (P<0.05, Mann-Whitney's U test) and stage 4 (P<0.05, Mann-Whitney's U test) with significant differences” and the “disease period extending effect in comparison to placebo group” value (G1H-G93A transgenic mice [1]; [4]) was “disease period extending effect”. The “survival period extending effect in comparison to placebo group” value (G1H-G93A transgenic mice [1]; [4]) was “survival period extending effect”, the day of onset (G1H-G93A transgenic mice [1]; [5]) was 112.0 ± 4.6 days and the disease period (G1H-G93A transgenic mice [1]; [5]) was 25.4 ± 3.2 days. For the same molecule, the survival period (G1H-G93A transgenic mice [1]; [5]) was 136.4 ± 3.3 days, the “time period of clinical symptomatological stage 1” value (G1H-G93A transgenic mice [1]; [5]) was 7.5±0.9 days and the “time period of clinical symptomatological stage 2” value (G1H-G93A transgenic mice [1]; [5]) was 6.7±1.2 days. For the same molecule, the “time period of clinical symptomatological stage 3” value (G1H-G93A transgenic mice [1]; [5]) was 5.4±1.1 days, the “time period of clinical symptomatological stage 4” value (G1H-G93A transgenic mice [1]; [5]) was 3.9±1.1 days and the “time period of clinical symptomatological stage 5” value (G1H-G93A transgenic mice [1]; [5]) was 1.9±0.3 days. The day of onset (G1H-G93A transgenic mice [1]; [6]) was 100.7 ± 4.3 days, the disease period (G1H-G93A transgenic mice [1]; [6]) was 24.2 ± 3.2 days and the survival period (G1H-G93A transgenic mice [1]; [6]) was 123.9 ± 3.2 days. The “time period of clinical symptomatological stage 1” value (G1H-G93A transgenic mice [1]; [6]) was 7.6±1.2 days, the “time period of clinical symptomatological stage 2” value (G1H-G93A transgenic mice [1]; [6]) was 6.2±0.8 days and the “time period of clinical symptomatological stage 3” value (G1H-G93A transgenic mice [1]; [6]) was 5.4±1.1 days. For the same molecule, the “time period of clinical symptomatological stage 4” value (G1H-G93A transgenic mice [1]; [6]) was 3.5±0.5 days, the “time period of clinical symptomatological stage 5” value (G1H-G93A transgenic mice [1]; [6]) was 1.5±0.5 days and the “Extension reflex test score” value (G1H-G93A transgenic mice [2]; 70th day after birth, 5 mg/kg) was 0.0±0.0. For the same molecule, the “Extension reflex test score” value (G1H-G93A transgenic mice [2]; 75th day after birth, 5 mg/kg) was 0.0±0.0, the “Extension reflex test score” value (G1H-G93A transgenic mice [2]; 80th day after birth, 5 mg/kg) was 0.0±0.0 and the “Extension reflex test score” value (G1H-G93A transgenic mice [2]; 85th day after birth, 5 mg/kg) was 0.0±0.0. The “Extension reflex test score” value (G1H-G93A transgenic mice [2]; 90th day after birth, 5 mg/kg) was 0.0±0.0, the “Extension reflex test score” value (G1H-G93A transgenic mice [2]; 95th day after birth, 5 mg/kg) was 0.0±0.0 and the “Extension reflex test score” value (G1H-G93A transgenic mice [2]; 100th day after birth, 5 mg/kg) was 0.0±0.0. For the same molecule, the “Extension reflex test score” value (G1H-G93A transgenic mice [2]; 105th day after birth, 5 mg/kg) was 0.0±0.0, the “effect in extension reflex test as compared to placebo group” value (G1H-G93A transgenic mice [2]; 105th, 110th, 115th and 120th day, 5 mg/kg oral daily from 80th day after birth, Mann-Whitney's U test) was “significant effects” and the “Extension reflex test score” value (G1H-G93A transgenic mice [2]; 110th day after birth, 5 mg/kg) was 0.1±0.3. For the same molecule, the “Extension reflex test score” value (G1H-G93A transgenic mice [2]; 115th day after birth, 5 mg/kg) was 0.5±0.5, the “Extension reflex test score” value (G1H-G93A transgenic mice [2]; 120th day after birth, 5 mg/kg) was 1.1±0.6 and the “Extension reflex test score” value (G1H-G93A transgenic mice [2]; 125th day after birth, 5 mg/kg) was 1.7±0.5. For the same molecule, the “Extension reflex test score” value (G1H-G93A transgenic mice [2]; 130th day after birth) was 2.0 ± 0.0, the “Extension reflex test score” value (G1H-G93A transgenic mice [2]; 135th day after birth) was 2.0 ± 0.0 and the “Extension reflex test score” value (G1H-G93A transgenic mice [2]; 140th day after birth) was 2.0 ± 0.0. For the same molecule, the “Extension reflex test score” value (G1H-G93A transgenic mice [2]; from the 130th day to 140th day after birth) was 2.0±0.0.
